Assays:
Assay type in all cases: in vivo, C57BL/6 male mice
[1] = test system: colitis induced by 2,4-dinitrobenzenesulfonic acid hydrate (DNBS); experiment: Mouse model of colitis using DNBS (body weight, length of large intestine, DAI, survival rate); conditions: for body weight: day 0 = 100%; for survival rate: as of day 5
Procedure: Mouse Model of Colitis Using DNBS
C57BL/6 male mice, which were eight weeks old (24.0 g), were purchased from Orient Bio, acclimated to the laboratory environment (temperature of 21±2° C. and humidity of 50±10%) for one week with a full access to feed and water, and used in an experiment.
The mice were divided into a normal control group (Control, n=6), a group with induced colitis (DNBS+Vehicle, n=8), a group dosed with tegoprazan (DNBS+Tegoprazan, n=8), and a group dosed with a control drug (DNBS+Rabeprazole, n=8), and the experiment was performed.
To induce colitis, DNBS (Sigma-Aldrich product, catalog No. 556971) was used. The mice were fasted from one day before being dosed with DNBS to remove the fecal waste in the intestine. The normal control group was dosed with 50% ethanol only by rectal route.
The administration of DNBS was done by dissolving 5 mg of DNBS in 50% ethanol and administering it by rectal route.
In the group dosed with tegoprazan (DNBS+Tegoprazan), the DNBS-administered mouse was orally dosed with tegoprazan (7-{[(4S)-5,7-Difluoro-3,4-dihydro-2H-chromen-4-yl]oxy}-N,N,2-trimethyl-1H-benzi midazole-5-carboxamide), which had been dissolved in 0.5% (w/v) methylcellulose aqueous solution, at a dose of 30 mg/kg/day twice a day for five days.
In the group dosed with the control drug (DNBS+Rabeprazole), the DNBS-administered mouse was dosed with rabeprazole in substantially the same manner as the group dosed with tegoprazan, except for using rabeprazole instead of tegoprazan.
In the group with induced colitis (DNBS+Vehicle), the DNBS-administered mouse was orally dosed with 0.5% (w/v) methylcellulose aqueous solution twice a day.
In the group dosed with tegoprazan, the group dosed with the control drug, and the group with induced colitis, the oral administration was performed twice a day by dividing the administration into morning/afternoon. After being dosed for four days, the mouse was sacrificed on the 5th day.
The body weight of each mouse in the normal control group, the group with induced colitis, the group dosed with tegoprazan, and the group dosed with the control drug was measured. The body weight of the mouse was measured every morning from the start day of experiment before administration of DNBS (day 0) to the 5th day, and the body weight of the mouse before administration of DNBS on day 0 was converted into 100%. In the case of the mouse sacrificed before the end of experiment, the weight of the mouse measured the day before sacrifice was included in the data as of the last day of experiment and converted (refer to FIG. 15 for survival period and survival rate).
On the 5th day after an initial administration of DNBS, the mouse was sacrificed, and the colon was removed therefrom to measure the length of the removed large intestine. (In FIG. 10, * indicates P<0.05.)
As DAI, a change in body weight, bloody stool and stool viscosity were measured every morning, and scored according to the following table 1.
(In relation to the animal model of colitis using DNBS, in the case of the mouse sacrificed before the end of experiment, the DAI score of the mouse measured the day before sacrifice was included in the data as of the last day of experiment and converted (refer to FIG. 15 for survival period and survival rate).)

[2] = test system: tight junction (intestinal permeability); experiment: FITC-dextran permeability, DSS model; conditions: FITC value in serum 4 hours after oral FITC-dextran
Procedure: Four hours before the mouse was sacrificed in the mouse model of colitis using DSS, the mouse was orally dosed with FITC-dextran (80 mg/mL), after which cardiac puncture was performed to measure an FITC value in serum. Permeability (%) was converted based on the normal control group.

IL-6 [3] = experiment: IL-6 mRNA expression in colonic tissues, DNBS model; conditions: compared to the group with induced colitis
IL-1β = IL-1β production/expression in colonic tissues, DSS model
Procedure: (§1) In the mouse model of colitis using DSS, the level of mRNA expression of IL-1p, IL-6, Muc 2 and TNF-α was evaluated by using a real-time PCR. (In FIG. 5, * indicates P<0.05, ** indicates P<0.01, and *** indicates P<0.001.)

colonic tissues [4] = experiment: PAS staining analysis and damage to colonic tissues, DNBS model
Procedure: (§2) PAS staining analysis was performed on colonic tissues obtained from each of the animal models in which DSS and DNBS had been used, the goblet cell loss was scored according to the following table 2, and the degree of tissue damage was scored according to the following table 3. [table] [table]

colonic tissues [5] = experiment: PAS staining analysis and damage to colonic tissues, DSS model; conditions: for scored degree of damage to colonic tissues: score per Table 3
Procedure: as §2

TNF-α [6] = experiment: TNF-α mRNA expression in colonic tissues, real-time PCR, DSS model; conditions: compared to the group with induced colitis
Procedure: as §1

TNF-α [7] = experiment: TNF-α mRNA expression in colonic tissues, DNBS model; conditions: compared to the group with induced colitis
IL-17 = IL-17 mRNA expression in colonic tissues, real-time PCR, DNBS model; conditions: compared to the group with induced colitis
Procedure: In the mouse model of colitis using DNBS, the level of mRNA expression of IL-17 was evaluated by using a real-time PCR. (In FIG. 12, ** indicates P<0.01 and *** indicates P<0.001.)

[8] = test system: colitis induced by dextran sodium sulfate (DSS); experiment: Mouse model of colitis using DSS (body weight, length of large intestine, DAI); conditions: 30 mg/kg/day oral twice a day; for decrease in body weight: vs day 0 = 100%
Procedure: Mouse Model of Colitis Using DSS C57BL/6 male mice, which were eight weeks old (24.0 g), were purchased from Orient Bio, acclimated to the laboratory environment (temperature of 21±2° C. and humidity of 50±10%) for one week with a full access to feed and water, and used in an experiment. The mice were divided into a normal control group (Control, n=6), a group with induced colitis (DSS+Veh, n=8), a group dosed with tegoprazan (DSS+Tegoprazan, n=8), and a group dosed with a control drug (DSS+Rabeprazole, n=8), and the experiment was performed. To induce colitis, DSS (MPbio product, catalog No. 0216011080) was used. The group with induced colitis (DSS+Veh) was dosed with 2.0% DSS in drinking water for consecutive five days, was suspended from 2.0% DSS administration from the 5th day, and was orally dosed with 0.5% (w/v) methylcellulose aqueous solution twice a day for three days until the 8th day. The group dosed with tegoprazan (DSS+Tegoprazan) was orally dosed with tegoprazan (7-{[(4S)-5,7-difluoro-3,4-dihydro-2H-chromen-4-yl]oxy}-N,N,2-trimethyl-1H-benzi midazole-5-carboxamide), which was dissolved in 0.5% (w/v) methylcellulose aqueous solution, at a dose of 30 mg/kg/day twice a day for five days along with 2% DSS and drinking water. The group was suspended from 2.0% DSS administration from the 5th day, and was orally dosed with tegoprazan, which was dissolved in 0.5% (w/v) methylcellulose aqueous solution, twice a day for three days until the 8th day. The group dosed with the control drug (DSS+Rabeprazole) was dosed with DSS and rabeprazole in substantially the same manner as the group dosed with tegoprazan, except for using rabeprazole instead of tegoprazan. In the group dosed with tegoprazan and the group dosed with the control drug, the oral administration was performed twice a day by dividing the administration into morning/afternoon. The body weight of each mouse was measured with regard to the normal control group, the group with induced colitis, the group dosed with tegoprazan, and the group dosed with the control drug. The body weight of the mouse was measured every morning from the start day of experiment (day 0), in which DSS was not administered, until the 9th day, and the body weight of the mouse, which was measured on the start day of experiment (day 0) without the administration of DSS, was converted into 100%. On the 9th day after an initial administration of 2% DSS solution, the mouse was sacrificed and the colon was removed therefrom to measure the length of the removed large intestine. (In FIG. 2, * indicates P<0.05 and ** indicates P<0.01.) As DAI, a change in body weight, bloody stool and stool viscosity were measured every morning, and scored according to the following table 1.

Muc2 = Muc2 mRNA expression in colonic tissues, real-time PCR, DSS model
Procedure: as §1

IL-6 [9] = experiment: IL-6 mRNA expression in colonic tissues, real-time PCR, DSS model; conditions: compared to the group with induced colitis
Procedure: as §1

KCNJ1 mRNA = KCNJ1 mRNA expression in colonic tissues, real-time PCR, DSS model; conditions: 30 mg/kg/day oral
Procedure: In the mouse model of colitis using DSS, the difference in expression of KCNJ1 mRNA was measured by using a real-time PCR. (In FIG. 4, ** indicates P<0.01.)

[10] = 5th day, 30 mg/kg/day oral twice a day

With `Cc1nc2cc(C(=O)N(C)C)cc(O[C@H]3CCOc4cc(F)cc(F)c43)c2[nH]1` [tegoprazan, (S)-4-(5,7-difluorochroman-4-yloxy)-N,N,2-trimethyl-1H-benzo[d]imidazole-6-carbox amide] the “length of the large intestine” value [1, 10] was “no difference in the length of the large intestine from the normal control group”, the body weight [1, 10] was “about 105%” and the survival rate [1] was “all the subjects in the group dosed with tegoprazan survived until the last day of experiment”. For the same compound, the “disease activity index (DAI) score” value ([1]; to 5th day, 30 mg/kg/day oral twice a day) was “DAI drastically decreased from the 4th day”, the “damage to the tight junction (FITC-dextran permeability)” value [2] was “significant decrease in the damage to the tight junction” and the “mRNA expression of IL-6” value (IL-6 [3]) was “tended to decrease”. The “production/expression of IL-1β” value (IL-1β) was “inhibits the production/expression”, the “crypt damage (PAS staining)” value (colonic tissues [4]; colonic tissues) was “partially intact crypt was observed” and the “goblet cells (PAS staining)” value (colonic tissues [4]; colonic tissues) was “presence of mucin-producing goblet cells was confirmed”. For the same compound, the “crypt damage (PAS staining)” value (colonic tissues [5]; colonic tissues) was “partially intact crypt was observed”, the “goblet cells (PAS staining)” value (colonic tissues [5]; colonic tissues) was “goblet cells were also present compared to the group with induced colitis” and the “scored degree of damage to colonic tissues” value (from here on “scored degree of damage”) (colonic tissues [5]) was 5.38±1.8 point. The “mRNA expression of TNF-α” value (TNF-α [6]) was “statistically significant decrease”, the “mRNA expression of TNF-α” value (TNF-α [7]) was “tended to decrease” and the “mRNA expression of IL-17” value (IL-17) was “significant decrease”. For the same compound, the “length of the large intestine” value ([8]; 9th day) was “a rather increase in the length of the large intestine or no difference from the normal control group”, the “decrease in body weight” value ([8]; 9th day) was “about 14%” and the “disease activity index (DAI) score” value ([8]; to 9th day) was “took a turn for the better compared to the group with induced colitis”. For the same compound, the “mRNA expression of Muc2” value (Muc2) was “statistically significant increase”, the “mRNA expression of IL-6” value (IL-6 [9]) was “statistically significant decrease” and the “expression of KCNJ1 mRNA” value (KCNJ1 mRNA) was “significant decrease in expression of KCNJ1 mRNA”.
For `COCCCOc1ccnc(C[S+]([O-])c2nc3ccccc3[nH]2)c1C` (centres unmarked) [control drug, rabeprazole, reference compound], the body weight [1, 10] was 89%, the survival rate [1] was 75% and the “scored degree of damage” value (colonic tissues [4]; score per Table 3) was 7.0±1.4 point. For the same compound, the “scored degree of damage” value (colonic tissues [5]) was 8.12±1.8 point and the “decrease in body weight” value ([8]; 9th day) was “about 23%”.

— US12642788B2, “Pharmaceutical composition comprising benzimidazole derivative compound” (HK INNO.N CORPORATION, priority 2020, dated 2026)
